The results in this text go back to patent US10227347B2, “Purinyl-N-hydroxyl pyrimidine formamide derivative, preparation methods and uses thereof” (Guizhou Bailing Group Pharmaceutical CO., LTD., priority 2015, dated 2019).

For one experiment, the target named is T1, HDAC1 (Homo sapiens, UniProt Q13547).
T1 construct: purchased BPS Bioscience
The experiment is described as follows: In vitro HDAC1 enzymatic activity inhibition (Lys-Ac-AMC substrate). In kind it is biochemical. The procedure: Determining the inhibition capability to HDAC activity through the substrate method of fluorophore 4-amino-7-coumarin coupled Ac-peptide (Lys-Ac-AMC). HDAC1 protein is purchased from BPS Bioscience Company; the reaction buffer system is a modified tris(hydroxymethyl)aminomethane (TRIS) buffer (pH7.0). All small molecule compounds are prepared and dissolved by 100% DMSO (dimethyl sulfoxide). HDAC is prepared into the buffer as per certain concentration to be served as the enzyme solution; trypsin and the fluorophore 4-amino-7-coumarin coupled Ac-peptide substrate are prepared into the buffer as per certain concentration to be served as the substrate solution. Adding the compound into the reaction wells of the 384 well plate at the designed concentration, then adding 15 μL HDAC solution into the reaction wells (adding 15 μL blank buffer into the control well 0) for incubation under ambient temperature for 15 min; then adding 10 μL substrate solution to start reaction; during the reaction, the final concentration of HDAC1 protein is 6 nM, trypsin 0.05 μM and Ac-peptide 8 μM.
(§1) Calculating the value of IC50 as per the formula: Y=background data+(top data−background data)/(1+10^((Log IC50−X)*rate of curve))
Where, Y refers to the inhibition ratio (%) and X refers to the compound concentration. […]
Analyzing the result data with the software GraphPad Prism and calculating the value of IC50 as per the formula: Y=background data+(top data−background data)/(1+10^((Log IC50−X)*rate of curve)). Where, Y refers to the inhibition ratio (%) and X refers to the compound concentration.

A further experiment concerns the target T2, PI3Kα (Homo sapiens, UniProt P42336).
T2 construct: purchased Invitrogen PV4788
Briefly: PI3Kα activity inhibition (Kinase-Glo). In kind it is biochemical. On the procedure:
Detecting the inhibition capability of the compound to PI3Kα and PI3Kδ activities with Kinase-Glo (purchased from Promege Company; Catalog No.: V3771). […] The reaction system also comprises substrates as PIP2 (4, 5-diphosphoinositide, purchased from Life Technologies Company) and ATP (triphosadenine, purchased from Sigma Company). The reaction buffer system comprises 50 mM HEPES (4-hydroxyethylpiperazine ethane sulfonic acid), 3 mM MgCl2, 1 mM EGTA (ethylene glycol bis(2-amino ethylether)quadrol), 100 mM NaCl, 0.03% CHAPS (3-[3-(cholamidopropyl)dimethylamino]-1-propanesulfonic acid), 2 mM DTT (dithiothreitol). The pH value of the reaction buffer is 7.5. […] Mixing the system evenly for incubation under ambient temperature (for 1 h in PI3Kα test and for 2 h in PI3Kδ test). After incubation, adding 10 μL Kinase-Glo which has been preheated to ambient temperature into each reaction well to terminate the reaction; shaking it in dark place for 15 min after it is mixed evenly, then measuring the fluorescence intensity with a microplate reader and analyzing the result data with the software GraphPad Prism.
as §1
Where, Y refers to the inhibition ratio (%) and X refers to the compound concentration.

Experiment [1] has as its system MV4-11 cells (acute myeloid leukemia). The experiment is described as follows: Cell proliferation inhibition, MV4-11 (cck-8). Type of experiment: cell-based. As to conditions: Homo sapiens. On the procedure:
(§2) The tumor cell lines are purchased from American Type Culture Collection (ATCC) and cultivated to the status of logarithmic growth as per the cultural method recommended by ATCC. The cells in logarithmic phase are spread on a 96 well plate as per 2000-3000/well; as for anchorage-dependent cells, the compound should be added in the test wells at certain concentration for incubation for 96 h after cell adherence. Determining cell proliferation activities with method MTT for tumor cells representing solid tumor model and with method cck-8 for tumor cells representing hematologic tumor model, and analyzing the result data with the software GraphPad Prism.
(§3) Calculating the value of IC50 as per the formula: Y=background data+(top data−background data)/(1+10^((Log IC50−X)*rate of curve)). Where, Y refers to the inhibition ratio (%) and X refers to the compound concentration.

The test system of experiment [2] is hct116 cells (colon cancer). The experiment is described as follows: Cell proliferation inhibition, hct116 (MTT). In kind it is cell-based. To be noted: Homo sapiens, HCT-116. The procedure: as §2, §3
In experiment [3] the test system is A2780s cells (ovarian cancer). The experiment is described as follows: Cell proliferation inhibition, A2780s (MTT). In kind it is cell-based. As to conditions: Homo sapiens, 96 h incubation, read-out: Proliferation IC50, Ovarian cancer A2780s. On the procedure:
as §2, §3

Setting [4] is: Table 1, graded, read-out: HDAC1 IC50.
Setting [5] is: Table 1, graded, read-out: PI3Kα IC50.
The mark [6] stands for this setting: 96 h incubation, read-out: Proliferation IC50, Acute myeloid leukemia MV4-11.
[7] abbreviates: 96 h incubation, read-out: Proliferation IC50, Colon cancer hct116.
[8] abbreviates: read-out: inhibition value IC50 to the activity of HDAC1.

Like-named read-outs stand apart in the source and are kept apart here.

T1 sequence (Q13547 whole entry, species assumed): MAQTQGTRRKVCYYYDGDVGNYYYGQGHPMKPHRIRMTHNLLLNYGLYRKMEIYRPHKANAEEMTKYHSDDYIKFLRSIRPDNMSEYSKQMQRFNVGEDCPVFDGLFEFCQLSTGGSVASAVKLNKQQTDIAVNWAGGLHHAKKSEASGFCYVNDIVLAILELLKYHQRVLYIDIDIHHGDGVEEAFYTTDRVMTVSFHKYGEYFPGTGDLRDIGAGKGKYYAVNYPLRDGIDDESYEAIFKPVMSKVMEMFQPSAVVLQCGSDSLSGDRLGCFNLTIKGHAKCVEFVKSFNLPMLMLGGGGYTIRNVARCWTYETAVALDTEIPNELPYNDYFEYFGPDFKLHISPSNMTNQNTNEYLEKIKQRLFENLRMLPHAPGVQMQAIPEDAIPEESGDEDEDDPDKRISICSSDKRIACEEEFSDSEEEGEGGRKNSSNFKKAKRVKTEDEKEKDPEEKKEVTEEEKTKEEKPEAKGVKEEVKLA
T2 sequence (P42336 whole entry, species assumed): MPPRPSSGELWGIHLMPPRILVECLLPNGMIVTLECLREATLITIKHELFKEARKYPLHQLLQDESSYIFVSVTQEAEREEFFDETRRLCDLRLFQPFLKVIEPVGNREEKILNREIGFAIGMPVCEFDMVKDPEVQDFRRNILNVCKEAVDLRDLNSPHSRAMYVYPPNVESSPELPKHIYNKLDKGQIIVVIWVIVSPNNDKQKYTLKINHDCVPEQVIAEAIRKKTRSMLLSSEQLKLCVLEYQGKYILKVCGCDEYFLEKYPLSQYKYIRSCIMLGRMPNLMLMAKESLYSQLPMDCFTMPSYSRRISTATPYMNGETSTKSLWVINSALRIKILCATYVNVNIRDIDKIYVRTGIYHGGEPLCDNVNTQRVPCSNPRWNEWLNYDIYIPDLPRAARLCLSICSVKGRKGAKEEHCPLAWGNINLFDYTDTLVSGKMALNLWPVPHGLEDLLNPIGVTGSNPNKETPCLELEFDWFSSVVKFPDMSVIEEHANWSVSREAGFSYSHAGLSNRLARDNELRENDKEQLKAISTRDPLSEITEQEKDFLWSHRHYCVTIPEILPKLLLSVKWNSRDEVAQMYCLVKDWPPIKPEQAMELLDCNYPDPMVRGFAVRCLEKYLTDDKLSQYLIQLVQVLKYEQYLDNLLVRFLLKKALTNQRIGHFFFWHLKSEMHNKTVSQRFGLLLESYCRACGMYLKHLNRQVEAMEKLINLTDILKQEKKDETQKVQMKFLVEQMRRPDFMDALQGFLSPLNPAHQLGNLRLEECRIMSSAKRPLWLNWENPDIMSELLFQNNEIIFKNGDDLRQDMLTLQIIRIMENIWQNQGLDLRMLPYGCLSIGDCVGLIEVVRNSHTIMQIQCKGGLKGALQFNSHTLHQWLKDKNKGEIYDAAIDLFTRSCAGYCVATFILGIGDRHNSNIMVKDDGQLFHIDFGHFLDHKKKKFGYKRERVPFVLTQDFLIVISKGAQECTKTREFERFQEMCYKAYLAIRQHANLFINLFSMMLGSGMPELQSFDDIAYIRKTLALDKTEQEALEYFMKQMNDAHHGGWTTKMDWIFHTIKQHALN
T2 sequence (P27986 whole entry partner, species assumed): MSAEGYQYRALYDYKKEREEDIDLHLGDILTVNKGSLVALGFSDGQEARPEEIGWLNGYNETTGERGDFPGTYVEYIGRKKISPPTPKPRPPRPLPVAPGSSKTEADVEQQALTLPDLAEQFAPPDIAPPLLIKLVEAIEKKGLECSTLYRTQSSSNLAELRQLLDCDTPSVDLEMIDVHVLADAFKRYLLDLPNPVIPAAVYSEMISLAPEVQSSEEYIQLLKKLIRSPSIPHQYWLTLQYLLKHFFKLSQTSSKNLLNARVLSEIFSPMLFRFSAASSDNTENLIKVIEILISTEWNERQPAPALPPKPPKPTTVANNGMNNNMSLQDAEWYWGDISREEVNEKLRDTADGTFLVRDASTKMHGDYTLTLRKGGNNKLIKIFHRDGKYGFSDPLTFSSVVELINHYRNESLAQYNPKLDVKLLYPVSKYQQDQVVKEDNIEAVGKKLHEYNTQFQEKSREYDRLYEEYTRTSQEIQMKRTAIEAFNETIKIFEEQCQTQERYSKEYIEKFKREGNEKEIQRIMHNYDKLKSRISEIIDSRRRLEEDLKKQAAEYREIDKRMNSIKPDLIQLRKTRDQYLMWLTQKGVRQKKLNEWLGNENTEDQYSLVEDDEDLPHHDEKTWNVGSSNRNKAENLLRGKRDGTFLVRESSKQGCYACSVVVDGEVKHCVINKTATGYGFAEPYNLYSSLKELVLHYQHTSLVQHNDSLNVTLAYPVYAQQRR

Take `CCn1c(CN(C)c2ncc(C(=O)NO)cn2)nc2c(N3CCOCC3)nc(-c3ccc(OC)nc3)nc21` [CLJ-2, 2-(((9-ethyl-2(6-methoxyl 3-pyridyl)-6-morpholino-9H-purine-8-yl))methyl(methyl)amino)-N-hydroxyl pyrimidine-5-formamide]: the IC50 at HDAC1 (setting [4]) is less than 100 nM; at PI3Kα (setting [5]) it was 1000 to 10000 nM; in experiment [1] (setting [6]) it was 100 to 1000 nM; in experiment [2] (setting [7]), 100 to 1000 nM; in experiment [3], 100 to 1000 nM.

With `COc1ccc(-c2nc(N3CCOCC3)c3nc(CN(C)c4ncc(C(=O)NO)cn4)n(C(C)C)c3n2)cn1` [CLJ-3, 2-(((9-isopropyl-2-(6-methoxyl-3-pyridyl)-6-morpholino-9H-purine-8-yl))methyl(methyl)amino)-N-hydroxyl pyrimidine-5-formamide], the IC50 on HDAC1 (setting [4]) is less than 100 nM; at PI3Kα (setting [5]), 1000 to 10000 nM; in experiment [1] (setting [6]), greater than 1000 nM; in experiment [2] (setting [7]), greater than 1000 nM; in experiment [3], greater than 1000 nM.

In the case of `COc1ccc(-c2nc(N3CCOCC3)c3nc(CN(C)c4ncc(C(=O)NO)cn4)n(C4CCCC4)c3n2)cn1` [CLJ-4, 2-(((9-cyclopentyl-2-(6-methoxyl-3-pyridyl)-6-morpholino-9H-purine-8-yl))methyl(methyl)amino)-N-hydroxyl pyrimidine-5-formamide], the IC50 on HDAC1 (setting [4]) is less than 100 nM; on PI3Kα (setting [5]) it was 1000 to 10000 nM; in experiment [1] (setting [6]), greater than 1000 nM; in experiment [2] (setting [7]), greater than 1000 nM; in experiment [3], greater than 1000 nM.

For `CN(Cc1nc2c(N3CCOCC3)nc(-c3ccc(N)nc3)nc2n1C)c1ncc(C(=O)NO)cn1` [CLJ-7, 2-(((2-(p-amino-3-pyridyl)-9-methyl-6-morpholine-9H-purine-8-yl))methyl(methyl)amino)-N-hydroxyl pyrimidine-5-formamide], the IC50 on HDAC1 (setting [4]) is less than 100 nM; on PI3Kα (setting [5]), greater than 10000 nM; in experiment [1] (setting [6]), 0.1 to 10 nM; in experiment [1] (read-out: IC50 to proliferation of MV4-11 cells), less than 10 nM; in experiment [2] (setting [7]), 100 to 1000 nM; in experiment [2] (read-out: IC50 to proliferation of hct116 cells) it was greater than 100 nM. Further, the IC50 in experiment [3] lay within 10 to 100 nM.

`CN(Cc1nc2c(N3CCOCC3)nc(-c3cccnc3)nc2n1C)c1ncc(C(=O)NO)cn1` [CLJ-9, 2-(((2-(3-pyridyl)-9-methyl-6-morpholine-9H-purine-8-yl))methyl(methyl)amino)-N-hydroxyl pyrimidine-5-formamide]: the IC50 is less than 1 nM on HDAC1 (setting [4]); less than 1 nM on HDAC1 (setting [8]); greater than 10000 nM at PI3Kα (setting [5]); 0.1 to 10 nM in experiment [1] (setting [6]); 10 to 100 nM in experiment [2] (setting [7]); 10 to 100 nM in experiment [3].

Consider `CN(Cc1nc2c(N3CCOCC3)nc(-c3cncnc3)nc2n1C)c1ncc(C(=O)NO)cn1` [CLJ-10, 2-(((2-(pyrimidine-5-yl)-9-methyl-6-morpholine-9H-purine-8-yl))methyl(methyl)amino)-N-hydroxyl pyrimidine-5-formamide], for which the IC50 on HDAC1 (setting [4]) is less than 100 nM; at PI3Kα (setting [5]) it was less than 100 nM; at PI3Kα (read-out: inhibition value IC50 to the activity of PI3Kα), less than 100 nM; in experiment [1] (setting [6]) it was 10 to 100 nM; in experiment [2] (setting [7]), 10 to 100 nM; in experiment [3], 100 to 1000 nM.

`CCCN(Cc1nc2c(N3CCOCC3)nc(-c3ccc4[nH]ncc4c3)nc2n1C)c1ncc(C(=O)NO)cn1` [CLJ-16, N-hydroxy-2-(((2-(1H-indazole-5-yl)-9-methyl-6-morpholine-9H-purine-8-yl))methyl(propyl)amino)pyrimidine-5-formamide]: the IC50 at HDAC1 (setting [4]) was 100 to 1000 nM; on PI3Kα (setting [5]) it was greater than 10000 nM; in experiment [1] (setting [6]) it was greater than 1000 nM; in experiment [2] (setting [7]), greater than 1000 nM; in experiment [3], greater than 1000 nM.

On to `CCCCN(Cc1nc2c(N3CCOCC3)nc(-c3ccc4[nH]ncc4c3)nc2n1C)c1ncc(C(=O)NO)cn1` [CLJ-17, N-hydroxy-2-(((2-(1H-indazole-5-yl)-9-methyl-6-morpholine-9H-purine-8-yl))methyl(butyl)amino)pyrimidine-5-formamide], for which the IC50 at HDAC1 (setting [4]) is 100 to 1000 nM; on PI3Kα (setting [5]), greater than 10000 nM; in experiment [1] (setting [6]), greater than 1000 nM; in experiment [2] (setting [7]), greater than 1000 nM; in experiment [3] it was greater than 1000 nM.

On to `CN(Cc1nc2c(N3CCOCC3)nc(-c3cccs3)nc2n1C)c1ncc(C(=O)NO)cn1` [CLJ-18, 2-(((2-(2-thienyl)-9-methyl-6-morpholine-9H-purine-8-yl))methyl(methyl)amino)-N-hydroxyl pyrimidine-5-formamide], for which the IC50 at HDAC1 (setting [4]) was less than 100 nM; on PI3Kα (setting [5]), greater than 10000 nM; in experiment [1] (setting [6]), 0.1 to 10 nM; in experiment [2] (setting [7]), 0.1 to 10 nM; in experiment [3] it was 10 to 100 nM.

Take `Cc1ccsc1-c1nc(N2CCOCC2)c2nc(CN(C)c3ncc(C(=O)NO)cn3)n(C)c2n1` [CLJ-19, 2-(((2-(3-methyl-2-thienyl)-9-methyl-6-morpholine-9H-purine-8-yl))methyl(methyl)amino)-N-hydroxyl pyrimidine-5-formamide]: the IC50 was less than 100 nM on HDAC1 (setting [4]); greater than 10000 nM on PI3Kα (setting [5]); 0.1 to 10 nM in experiment [1] (setting [6]); 0.1 to 10 nM in experiment [2] (setting [7]); 10 to 100 nM in experiment [3].

As to `CN(Cc1nc2c(N3CCOCC3)nc(-c3ccc(C(=O)O)s3)nc2n1C)c1ncc(C(=O)NO)cn1` [CLJ-20, 2-(((2-(5-carboxyl-2-thienyl)-9-methyl-6-morpholine-9H-purine-8-yl))methyl(methyl)amino)-N-hydroxyl pyrimidine-5-formamide], the IC50 is less than 100 nM on HDAC1 (setting [4]); greater than 10000 nM on PI3Kα (setting [5]); 0.1 to 10 nM in experiment [1] (setting [6]); 0.1 to 10 nM in experiment [2] (setting [7]); 10 to 100 nM in experiment [3].

`CN(Cc1nc2c(N3CCOCC3)nc(-c3cccc(C(=O)N4CCN(CO)CC4)c3)nc2n1C)c1ncc(C(=O)NO)cn1` [CLJ-66, 2-(((2-(3-(4-(hydroxymethyl)piperazine-1-carbonyl)phenyl)-9-methyl-6-morpholine-9H-purine-8-yl))methyl(methyl)amino)-N-hydroxyl pyrimidine-5-formamide]: the IC50 on HDAC1 (setting [4]) is less than 100 nM; at PI3Kα (setting [5]) it was greater than 10000 nM.

`CN(Cc1nc2c(N3CCOCC3)nc(-c3ccc(CN4CCOCC4)cc3)nc2n1C)c1ncc(C(=O)NO)cn1` [CLJ-67]: the IC50 at HDAC1 (setting [4]) was less than 1 nM; at HDAC1 (setting [8]), less than 1 nM; at PI3Kα (setting [5]) it was greater than 10000 nM.

Consider `COc1ccc(-c2nc(N3CCNCC3)c3nc(CN(C)c4ncc(C(=O)NO)cn4)n(C)c3n2)cc1` [CLJ-69, N-hydroxy-2-(((2-(4-methoxyphenyl)-9-methyl-6-(piperazine-1-yl)-9H-purine-8-yl)methyl)(methyl)amino)pyrimidine-5-formamide], for which the IC50 on HDAC1 (setting [4]) was less than 100 nM; at PI3Kα (setting [5]) it was greater than 10000 nM.

For `COc1ccc(-c2nc(N3CCN(CCO)CC3)c3nc(CN(C)c4ncc(C(=O)NO)cn4)n(C)c3n2)cc1` [CLJ-70, N-hydroxy-2-(((2-(4-methoxyphenyl)-9-methyl-6-(4-(2-hydroxyethylpiperazine)-1-yl)-9H-purine-8-yl)methyl)(methyl)amino)pyrimidine-5-formamide], the IC50 was less than 100 nM at HDAC1 (setting [4]) and greater than 10000 nM at PI3Kα (setting [5]).

For the compound `Nc1cc(F)ccc1NC(=O)c1ccc(CNC(=O)/C=C/c2cccnc2)cc1` [Chidamide, chidamide, reference compound], the IC50 in experiment [1] (setting [6]) is 100 to 1000 nM; in experiment [2] (setting [7]), greater than 1000 nM; in experiment [3], greater than 1000 nM.
